Drawing on patent US9777001B2 (priority 2014, dated 2017), this text covers Ki for 20 compounds.

Usually Ki stands for the dissociation constant of the complex between target and ligand, obtained from inhibition or displacement.

The target of this assay is human plasma kallikrein (Homo sapiens, UniProt P03952). Description: biochemical. Particulars: purified human plasma kallikrein, substrate S-2302, sodium phosphate buffer pH 7.5.

Structures can show the parent of a compound that is named as a salt.

human plasma kallikrein, sequence (P03952 391-638 limits assumed): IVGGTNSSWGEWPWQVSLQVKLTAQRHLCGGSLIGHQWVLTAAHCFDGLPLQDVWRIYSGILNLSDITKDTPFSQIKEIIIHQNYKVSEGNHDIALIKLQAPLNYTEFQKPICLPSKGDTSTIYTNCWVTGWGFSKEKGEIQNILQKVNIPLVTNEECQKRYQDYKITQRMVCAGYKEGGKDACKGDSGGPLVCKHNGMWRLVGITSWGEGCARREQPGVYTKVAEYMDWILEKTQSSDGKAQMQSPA
human plasma kallikrein, sequence (P03952 20-390 partner limits assumed): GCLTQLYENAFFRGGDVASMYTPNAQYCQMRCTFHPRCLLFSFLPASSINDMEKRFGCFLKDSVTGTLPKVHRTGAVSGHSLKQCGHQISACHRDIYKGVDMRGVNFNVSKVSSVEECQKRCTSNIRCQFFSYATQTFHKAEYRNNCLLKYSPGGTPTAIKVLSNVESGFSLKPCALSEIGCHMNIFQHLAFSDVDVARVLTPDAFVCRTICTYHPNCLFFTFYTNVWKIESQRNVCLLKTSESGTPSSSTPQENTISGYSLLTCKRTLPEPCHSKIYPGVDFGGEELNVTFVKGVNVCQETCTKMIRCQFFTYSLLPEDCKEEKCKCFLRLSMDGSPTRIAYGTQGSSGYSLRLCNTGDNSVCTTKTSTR

For the compound `C[C@@H]1CCC[C@H](n2cnc(-c3cc(Cl)ccc3-n3cc(C#N)nn3)cc2=O)c2cc(ccn2)-c2ccc(C#N)cc2NC1=O` [Example 38, (10R,14S)-14-{4-[5-Chloro-2-(4-cyano-1H-1,2,3-triazol-1-yl)phenyl]-6-oxo-1,6-dihydropyrimidin-1-yl}-10-methyl-9-oxo-8,16-diazatricyclo[13.3.1.0^2,7]nonadeca-1(19),2(7),3,5,15,17-hexaene-5-carbonitrile trifluoroacetate], the Ki was 19 nM.

On to `C[C@@H]1CC(O)C[C@H](n2cnc(-c3c(-n4cc(Cl)nn4)ccc(Cl)c3F)cc2=O)c2cc(ccn2)-c2cc(F)ccc2NC1=O` (stereo partly drawn) [Example 40, (10R,14S)-14-{4-[3-chloro-6-(4-chloro-1H-1,2,3-triazol-1-yl)-2-fluorophenyl]-6-oxo-1,6-dihydropyrimidin-1-yl}-4-fluoro-12-hydroxy-10-methyl-8,16-diazatricyclo[13.3.1.0^2,7]nonadeca-1(19),2(7),3,5,15,17-hexaen-9-one trifluoroacetate], for which the affinity, expressed as Ki, was 13 nM.

`COC(=O)Nc1ccc2c(c1)NC(=O)[C@H](C)CCC[C@H](n1cnc(-c3cccc(Cl)c3F)cc1=O)c1cc-2ccn1` [Example 45, methyl N-[(10R,14S)-14-[4-(3-chloro-2-fluorophenyl)-6-oxo-1,6-dihydropyrimidin-1-yl]-10-methyl-9-oxo-8,16-diazatricyclo[13.3.1.0^2,7]nonadeca-1(18),2,4,6,15(19),16-hexaen-5-yl]carbamate trifluoroacetate] showed a Ki of 78 nM.

As for `COC(=O)Nc1ccc2c(c1)NC(=O)[C@H](C)CCC[C@H](n1cnc(-c3cc(Cl)ccc3F)cc1=O)c1cc-2ccn1` [Example 49, methyl N-[(10R,14S)-14-[4-(5-chloro-2-fluorophenyl)-6-oxo-1,6-dihydropyrimidin-1-yl]-10-methyl-9-oxo-8,16-diazatricyclo[13.3.1.0^2,7]nonadeca-1(19),2(7),3,5,15,17-hexaen-5-yl]carbamate trifluoroacetate], the Ki stood at 13 nM.

Consider `C[C@@H]1CCC[C@H](n2cnc(-c3c(-n4ccnn4)ccc(Cl)c3F)cc2=O)c2cc(ccn2)-c2c(ccc(F)c2F)NC1=O` [Example 54, (10R,14S)-14-{4-[3-chloro-2-fluoro-6-(1H-1,2,3-triazol-1-yl)phenyl]-6-oxo-1,6-dihydropyrimidin-1-yl}-3,4-difluoro-10-methyl-8,16-diazatricyclo[13.3.1.0^2,7]nonadeca-1(19),2(7),3,5,15,17-hexaen-9-one trifluoroacetate], for which the inhibition constant (Ki) was found to be 41 nM.

`C[C@@H]1CCC[C@H](n2cnc(-c3c(-n4cc(Cl)nn4)ccc(Cl)c3F)cc2=O)c2cc(ccn2)-c2ccccc2NC1=O` [Example 58, (10R,14S)-14-{4-[3-chloro-6-(4-chloro-1H-1,2,3-triazol-1-yl)-2-fluorophenyl]-6-oxo-1,6-dihydropyrimidin-1-yl}-10-methyl-8,16-diazatricyclo [13.3.1.0^2,7]nonadeca-1(19),2,4,6,15,17-hexaen-9-one] had a Ki of 5 nM.

Take `C[C@@H]1CCC[C@H](n2cnc(-c3cc(Cl)ccc3-c3cnn(C)c3)cc2=O)c2cc(ccn2)-c2cc(F)ccc2NC1=O` [Example 66, (10R,14S)-14-{4-[5-chloro-2-(1-methyl-1H-pyrazol-4-yl)phenyl]-6-oxo-1,6-dihydropyrimidin-1-yl}-4-fluoro-10-methyl-8,16-diazatricyclo[13.3.1.0^2,7]nonadeca-1(19),2(7),3,5,15,17-hexaen-9-one]: the affinity corresponds to a Ki of 900 nM.

Compound `C[C@@H]1CCC[C@H](n2cnc(-c3cc(Cl)ccc3-n3cc(Cl)nn3)cc2=O)c2cc(ccn2)-c2ccc(C(F)F)cc2NC1=O` [Example 74, (10R,14S)-14-{4-[5-chloro-2-(4-chloro-1H-1,2,3-triazol-1-yl)phenyl]-6-oxo-1,6-dihydropyrimidin-1-yl}-5-(difluoromethyl)-10-methyl-8,16-diazatricyclo [13.3.1.0^2,7]nonadeca-1(19),2(7),3,5,15,17-hexaen-9-one] had a Ki of 40 nM.

Turning to `C[C@@H]1CCC[C@H](n2cnc(-c3cc(Cl)ccc3-n3cc(Cl)nn3)cc2=O)c2cc(ccn2)-c2ccc(Cl)cc2NC1=O` [Example 75, (10R,14S)-5-chloro-14-{4-[5-chloro-2-(4-chloro-1H-1,2,3-triazol-1-yl)phenyl]-6-oxo-1,6-dihydropyrimidin-1-yl}-10-methyl-8,16-diazatricyclo [13.3.1.0^2,7]nonadeca-1(19),2(7),3,5,15,17-hexaen-9-one], the affinity, expressed as Ki, was 100 nM.

`C[C@@H]1CCC[C@H](n2cnc(-c3cc(Cl)ccc3-n3cc(Cl)nn3)cc2=O)c2cc(ccn2)-c2ccc(C#N)cc2NC1=O` [Example 89, (10R,14S)-14-{4-[5-chloro-2-(4-chloro-1H-1,2,3-triazol-1-yl)phenyl]-6-oxo-1,6-dihydropyrimidin-1-yl}-10-methyl-9-oxo-8,16-diazatricyclo[13.3.1.0^2,7]nonadeca-1(19),2(7),3,5,15,17-hexaene-5-carbonitrile trifluoroacetate] showed a Ki of 8 nM.

As to `C#Cc1ccc2c(c1)NC(=O)[C@H](C)CCC[C@H](n1cnc(-c3cc(Cl)ccc3-n3cc(Cl)nn3)cc1=O)c1cc-2ccn1` [Example 91, (10R,14S)-14-{4-[5-chloro-2-(4-chloro-1H-1,2,3-triazol-1-yl)phenyl]-6-oxo-1,6-dihydropyrimidin-1-yl}-5-ethynyl-10-methyl-8,16-diazatricyclo[13.3.1.0^2,7]nonadeca-1(19),2(7),3,5,15,17-hexaen-9-one], the inhibition constant (Ki) stood at 660 nM.

Take `C[C@@H]1CCC[C@H](n2cnc(-c3cc(Cl)ccc3-n3cc(C(F)F)nn3)cc2=O)c2cc(ccn2)-c2ccccc2NC1=O` [Example 94, (10R,14S)-14-(4-{5-chloro-2-[4-(difluoromethyl)-1H-1,2,3-triazol-1-yl]phenyl}-6-oxo-1,6-dihydropyrimidin-1-yl)-10-methyl-8,16-diazatricyclo[13.3.1.0^2,7]nonadeca-1(19),2(7),3,5,15,17-hexaen-9-one]: affinity was put at a Ki of 30 nM.

The compound `C[C@@H]1CCC[C@H](n2cnc(-c3c(-n4cc(Cl)nn4)ccc(Cl)c3F)cc2=O)c2cc(ccn2)-c2cc(C#N)ccc2NC1=O` [Example 98, (10R,14S)-14-{4-[3-Chloro-6-(4-chloro-1H-1,2,3-triazol-1-yl)-2-fluorophenyl]-6-oxo-1,6-dihydropyrimidin-1-yl}-10-methyl-9-oxo-8,16-diazatricyclo[13.3.1.0^2,7]nonadeca-1(19),2(7),3,5,15,17-hexaene-4-carbonitrile trifluoroacetate] displayed a Ki of 40 nM.

The compound `C[C@@H]1CCC[C@H](n2cnc(-c3cc(Cl)ccc3-n3cc(Cl)nn3)cc2=O)c2cc(ccn2)-c2ccc(OCC(=O)O)cc2NC1=O` [Example 99, 2-{[(10R,14S)-14-{4-[5-chloro-2-(4-chloro-1H-1,2,3-triazol-1-yl)phenyl]-6-oxo-1,6-dihydropyrimidin-1-yl}-10-methyl-9-oxo-8,16-diazatricyclo[13.3.1.0^2,7]nonadeca-1(19),2(7),3,5,15,17-hexaen-5-yl]oxy}acetic acid] registered a Ki of 4900 nM.

On to `C[C@@H]1CCC[C@H](n2cnc(-c3cc(Cl)ccc3-n3cc(C(F)(F)F)nn3)cc2=O)c2cncc(c2)-c2cc(F)ccc2NC1=O` [Example 103, (10R,14S)-14-(4-{5-chloro-2-[4-(trifluoromethyl)-1H-1,2,3-triazol-1-yl]phenyl}-6-oxo-1,6-dihydropyrimidin-1-yl)-4-fluoro-10-methyl-8,17-diazatricyclo[13.3.1.0^2,7]nonadeca-1(19),2(7),3,5,15,17-hexaen-9-one], for which the Ki worked out at 32 nM.

As to `C[C@@H]1CCC[C@H](n2cnc(-c3cc(Cl)ccc3-n3cc(Cl)nn3)cc2=O)c2cc(ccn2)-c2c(Cl)cccc2NC1=O` [Example 104, (10R,14S)-3-chloro-14-{4-[5-chloro-2-(4-chloro-1H-1,2,3-triazol-1-yl)phenyl]-6-oxo-1,6-dihydropyrimidin-1-yl}-10-methyl-8,16-diazatricyclo [13.3.1.0^2,7]nonadeca-1(19),2(7),3,5,15,17-hexaen-9-one], affinity was put at a Ki of 190 nM.

The compound `C[C@@H]1CCC[C@H](n2cnc(-c3cc(Cl)ccc3-n3cc(C(F)(F)F)nn3)cc2=O)c2ccnc(c2)-c2ccc(C#N)cc2NC1=O` [Example 113, (10R,14S)-14-(4-{5-chloro-2-[4-(trifluoromethyl)-1H-1,2,3-triazol-1-yl]phenyl}-6-oxo-1,6-dihydropyrimidin-1-yl)-10-methyl-9-oxo-8,18-diazatricyclo [13.3.1.0^2,7]nonadeca-1(19),2(7),3,5,15,17-hexaene-5-carbonitrile] returned a Ki of 15 nM.

Compound `C[C@@H]1CCC[C@H](n2cnc(-c3cc(Cl)ccc3-n3cc(Cl)nn3)cc2=O)c2cc(ccn2)-c2cc(C#N)ccc2NC1=O` [Example 114, (10R,14S)-14-{4-[5-chloro-2-(4-chloro-1H-1,2,3-triazol-1-yl)phenyl]-6-oxo-1,6-dihydropyrimidin-1-yl}-10-methyl-9-oxo-8,16-diazatricyclo[13.3.1.0^2,7]nonadeca-1(19),2(7),3,5,15,17-hexaene-4-carbonitrile trifluoroacetate] gave a Ki of 26 nM.

For the compound `COC(=O)Nc1ccc2c(c1)NC(=O)[C@H](C)CCC[C@H](n1cnc(-c3cc(Cl)cc4cnn(C)c34)cc1=O)c1cc-2ccn1` [Example 120, N-[(10R,14S)-14-[4-(5-chloro-1-methyl-1H-indazol-7-yl)-6-oxo-1,6-1-yl]-10-methyl-9-oxo-8,16-diazatricyclo[13.3.1.0^2,7]nonadeca-1(19),2(7),3,5,15,17-hexaen-5-yl]carbamate], the Ki turned out to be 180 nM.

`C[C@@H]1CCC[C@H](n2cnc(-c3cc(Cl)ccc3-c3cnn(C(F)F)c3)cc2=O)c2cc(ccn2)-c2cc(F)ccc2NC1=O` [Example 124, (10R,14S)-14-(4-{5-chloro-2-[1-(difluoromethyl)-1H-pyrazol-4-yl]phenyl}-6-oxo-1,6-dihydropyrimidin-1-yl)-4-fluoro-10-methyl-8,16-diazatricyclo [13.3.1.0^2,7]nonadeca-1(19),2(7),3,5,15,17-hexaen-9-one trifluoroacetate]: the Ki was found to be 780 nM.
